The source of these data is patent US8741932B2, “Imidazopyridine derivatives” (Piramal Enterprises Limited, priority 2009, dated 2014).

pIC50: −log10 of the molar value.

One assay deals with T1, mTOR (Homo sapiens, UniProt P42345).
T1 construct: endogenous in cells; host or cells: A2780 ovarian cell line (ATCC)
Nature of the assay: mTOR activity assay (cell ELISA, Phospho-AKT Ser 473, A2780 cells). The assay is classed as cell-based. The conditions noted are these: for inhibition at 1 µM: read-out: % Inhibition of mTOR activity at 1 μM. The essentials: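 A2780 cells adhered 18-24 h, serum-starved 24 h, then stimulated with 20% FCS for 30 min alongside compound-treated sets. Fixed cells probed for phospho-AKT Ser473 by HRP/OPD cell ELISA, absorbance 490 nm. Values given as percentage or fold decrease in AKT phosphorylation relative to stimulated cells.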
In general terms: In an ELISA, binding on a coated surface is turned into a signal by an enzyme label.

The next assay concerns IL-6. The experiment in a line: Synovial tissue assay, IL-6. Format: cell-based. The conditions noted are these: Homo sapiens; synovial tissue cells from rheumatoid arthritis patients, 16 hours. A digest of the protocol: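 Collagenase-digested synovial cells from rheumatoid arthritis patients (1×10^6 cells/ml, RPMI with 5% FBS and 5% human AB serum) incubated 16 h at 37° C with compounds at 0.01–100 μM, 0.5% DMSO. Cytokines in supernatants measured by ELISA; cytotoxicity by MTS at 490 nm versus DMSO-treated cells.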

The target of a further assay is T2, PI3Kα kinase (Homo sapiens, UniProt P42336).
T2 construct: purchased Millipore, USA
T2 sequence (P42336 whole entry): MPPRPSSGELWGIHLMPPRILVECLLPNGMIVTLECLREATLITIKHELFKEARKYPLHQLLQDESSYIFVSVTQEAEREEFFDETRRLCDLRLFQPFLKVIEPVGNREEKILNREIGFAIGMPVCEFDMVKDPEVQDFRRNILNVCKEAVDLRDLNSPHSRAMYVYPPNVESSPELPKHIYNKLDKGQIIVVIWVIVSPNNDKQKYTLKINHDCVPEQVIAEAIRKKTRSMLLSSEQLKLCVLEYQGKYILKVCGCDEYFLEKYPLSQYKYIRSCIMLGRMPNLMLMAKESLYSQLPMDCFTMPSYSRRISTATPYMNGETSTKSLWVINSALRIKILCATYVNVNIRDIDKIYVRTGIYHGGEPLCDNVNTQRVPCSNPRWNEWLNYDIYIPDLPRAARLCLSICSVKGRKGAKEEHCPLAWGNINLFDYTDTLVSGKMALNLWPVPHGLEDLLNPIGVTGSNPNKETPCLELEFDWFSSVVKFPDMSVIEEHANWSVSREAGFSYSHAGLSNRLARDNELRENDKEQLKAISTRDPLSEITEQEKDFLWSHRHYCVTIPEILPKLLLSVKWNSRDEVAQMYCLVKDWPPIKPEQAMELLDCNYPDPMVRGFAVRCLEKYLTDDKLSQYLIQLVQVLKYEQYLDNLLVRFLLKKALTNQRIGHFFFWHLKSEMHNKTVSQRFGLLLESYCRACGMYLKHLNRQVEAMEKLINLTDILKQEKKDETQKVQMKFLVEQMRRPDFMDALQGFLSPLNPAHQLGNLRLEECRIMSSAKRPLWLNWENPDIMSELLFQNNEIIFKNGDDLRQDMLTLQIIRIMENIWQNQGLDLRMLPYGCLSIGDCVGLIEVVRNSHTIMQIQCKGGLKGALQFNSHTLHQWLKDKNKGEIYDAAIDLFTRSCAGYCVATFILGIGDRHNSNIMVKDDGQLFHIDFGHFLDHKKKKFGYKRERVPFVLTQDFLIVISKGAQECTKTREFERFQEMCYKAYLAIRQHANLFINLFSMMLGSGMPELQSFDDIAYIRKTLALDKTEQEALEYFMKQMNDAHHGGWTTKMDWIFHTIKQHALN
T2 sequence (P27986 whole entry partner): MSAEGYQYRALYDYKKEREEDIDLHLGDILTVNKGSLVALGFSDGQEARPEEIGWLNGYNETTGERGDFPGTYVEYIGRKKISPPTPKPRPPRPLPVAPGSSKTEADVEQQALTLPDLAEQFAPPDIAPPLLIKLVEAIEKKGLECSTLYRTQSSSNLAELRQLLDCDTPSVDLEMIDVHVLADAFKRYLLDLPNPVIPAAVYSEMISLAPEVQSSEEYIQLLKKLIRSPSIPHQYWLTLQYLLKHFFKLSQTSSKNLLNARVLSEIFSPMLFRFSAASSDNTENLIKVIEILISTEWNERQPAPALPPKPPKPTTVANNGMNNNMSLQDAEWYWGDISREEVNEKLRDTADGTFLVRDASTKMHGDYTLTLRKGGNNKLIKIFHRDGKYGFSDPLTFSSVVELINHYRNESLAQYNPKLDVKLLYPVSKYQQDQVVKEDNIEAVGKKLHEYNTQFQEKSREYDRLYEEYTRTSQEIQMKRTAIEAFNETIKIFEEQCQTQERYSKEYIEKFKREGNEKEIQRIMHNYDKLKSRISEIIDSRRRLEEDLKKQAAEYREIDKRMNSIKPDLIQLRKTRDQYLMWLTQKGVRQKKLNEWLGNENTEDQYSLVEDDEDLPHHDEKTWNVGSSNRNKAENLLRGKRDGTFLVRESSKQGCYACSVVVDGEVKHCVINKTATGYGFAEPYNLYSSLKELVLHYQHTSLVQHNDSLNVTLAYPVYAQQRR
Nature of the assay: Kinase assay (PI3Kα). Format: biochemical. The settings on record: read-out: IC50 (μM) for PI3K inhibition. The essentials: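 Recombinant PI3Kα (20 ng) phosphorylated 12.5 μg phosphatidylinositol with 10 μM ATP and 1 μCi ^32γ P […] in 10 mM Hepes pH 7.5, 50 mM MgCl2 for 20 min at 30° C. Lipids were extracted with MeOH/CHCl3, resolved by TLC, and labelled PI quantified by autoradiography densitometry; PI-103 served as standard.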

A further assay deals with HCT116. The experiment in a line: Cytotoxicity assay (propidium iodide), HCT116. The assay is classed as cell-based. The settings on record: Homo sapiens, HCT-116; HCT116 (C4b, colon); 48 hours.
A further assay concerns CAPAN1. The experiment in a line: Cytotoxicity assay (propidium iodide), CAPAN1. Format: cell-based. The settings on record: Homo sapiens, CAPAN-1; CAPAN1 (C5b, pancreatic); 48 hours.

Procedure for CAPAN1: (§1) Cells from cell lines as mentioned in the table given below were seeded at a density of 3000 cells/well in a white opaque 96-well plate. Following incubation at 37° C./5% CO2 for a period of 18-24 hours, the cells were treated with various concentrations (stock solution was prepared in DMSO and subsequent dilutions were made in media as per ATCC guidelines) of the representative compounds of present invention (refer table 3) for a period of 48 hours. At the end of treatment, the spent culture medium was discarded, the cells were washed with 1×PBS and 200 μl of 7 μg/ml propidium iodide was added to each well. The plates were frozen at −70° C. for at least 24 hours. For analysis, the plates were brought to RT, allowed to thaw and were read in PolarStar fluorimeter with the fluorescence setting. The percentage of viable cells in the non treated set of wells was considered to be 100 and the percentage viability following treatment was calculated accordingly. IC50 values were calculated from graphs plotted using these percentages.
Procedure for HCT116: as §1

Take `CN(N=Cc1cnc2ccc(-c3cccnc3)cn12)S(=O)(=O)c1cc(F)cc(F)c1` [Example 16, 3,5-Difluoro-N-methyl-N′-((6-(pyridine-3-yl)imidazo[1,2-a]pyridine-3-yl)methylene) benzenesulfonohydrazide]: at mTOR, the inhibition (commonly the change of the read-out against control, counted positive when it falls) at 1 µM is 30 to 50%. Moreover, the IC50 (in general, the concentration that inhibits the measured activity by half) lay in the range of 0.01 to 0.3 µM with IL-6 and 0.5 to 1 µM at PI3Kα kinase.
On to `CN(N=Cc1cnc2ccc(-c3cccnc3)cn12)S(=O)(=O)c1ccc(F)cc1` [Example 6, 4-Fluoro-N-methyl-N′-((6-(pyridine-3-yl)imidazo[1,2-a]pyridine-3-yl)methylene)benzenesulfonohydrazide], for which the inhibition at 1 µM at mTOR was in the range of 30 to 50%. Further, the concentration for half-maximal inhibition (IC50) with IL-6 lay in the range of 0.3 to 3 µM; at PI3Kα kinase it was 0.5 to 1 µM. For the same compound, the pIC50 in the assay on HCT116 and in the assay with CAPAN1 was 5.30 to 8.00 throughout.
For `Cc1ccc([N+](=O)[O-])cc1S(=O)(=O)N(C)N=Cc1cnc2ccc(-c3cccnc3)cn12` [Example 25], the figures for the pIC50 on mTOR, in the assay on HCT116 and in the assay on CAPAN1 were 5.30 to 6.00, 5.30 to 8.00 and 5.30 to 8.00, respectively. The half-inhibitory concentration (IC50) with IL-6 is 0.01 to 0.3 µM; on PI3Kα kinase, 0.01 to 0.5 µM.
In the case of `Cc1ccc(F)cc1S(=O)(=O)N(C)N=Cc1cnc2ccc(-c3cccnc3)cn12` [Example 21, 5-Fluoro-N, 2-dimethyl-N′-((6-(pyridine-3-yl)imidazo[1,2-a]pyridine-3-yl)methylene) benzenesulfonohydrazide], the pIC50 – broadly, the IC50 on a negative log10 scale, so that one unit is a factor of ten – against mTOR is 5.30 to 6.00; in the assay with HCT116, 5.30 to 8.00; in the assay on CAPAN1, 5.30 to 8.00. Also, the IC50 in the assay with IL-6 lay within 0.01 to 0.3 µM; on PI3Kα kinase, 0.01 to 0.5 µM.
With `CN(N=Cc1cnc2ccc(-c3cccnc3)cn12)S(=O)(=O)c1cccc(F)c1` [Example 5, 3-Fluoro-N-methyl-N′-((6-(pyridine-3-yl)imidazo[1,2-a]pyridine-3-yl)methylene)benzenesulfonohydrazide], the pIC50 at mTOR is 5.30 to 6.00; in the assay with HCT116 it was 5.30 to 8.00; in the assay with CAPAN1, 5.30 to 8.00. In addition, the half-inhibitory concentration (IC50) in the assay on IL-6 lay in the range of 0.01 to 0.3 µM; at PI3Kα kinase it was 0.5 to 1 µM.
